Measured values from patent US20100173835A1, “Peptides for Treatment of Obesity” (Novo Nordisk A/S, priority 2008, published 2010).
≈ marks a conversion by molar mass, not a printed value. Where a SMILES comes first, the peptide text is derived from it. Bridges are numbered along the chain shown (N, C = ends). [ ]: non-standard residue; d: D form. The star is where a group is joined. Palmitoyl(16-(5-tetrazolyl)) = O=C(CCCCCCCCCCCCCCCc1nnn[nH]1)*; Hyp = O=C(O)[C@@H]1C[C@@H](O)CN1; NTA = O=C(O)CN(CC(=O)O)CC(=O)*; Nle = CCCC[C@H](N)C(=O)O; Dap = NC[C@H](N)C(=O)O; AEEA = NCCOCCOCC(=O)O

Key:
ad libitum fed rat model = experiment: Assay (I) efficacy testing on appetite, ad libitum fed rat model; format: in vivo
Method: Assay (I)—Experimental protocol for efficacy testing on appetite with MC4 analogues, using an ad libitum fed rat model. TAC:SPRD @mol rats or Wistar rats from M&B Breeding and Research Centre A/S, Denmark are used for the experiments. The rats have a body weight 200-250 g at the start of experiment. The rats arrive at least 10-14 days before start of experiment with a body weight of 180-200 g. Each dose of compound is tested in a group of 8 rats. […] When the animals arrive they are housed individually in a reversed light/dark phase (lights off 7:30 am, lights on 7:30 pm), meaning that lights are off during daytime and on during nighttime. […] During this period the animals are handled at least 3 times. The experiment is conducted in the rats' home cages. Immediately before dosing the rats are randomised to the various treatment groups (n 8) by body weight. They are dosed according to body weight at between 7:00 am and 7:45 am, with a 1-3 mg/kg solution administered intraperitoneally (ip), orally (po) or subcutaneously (sc). The time of dosing is recorded for each group. After dosing, the rats are returned to their home cages, where they then have access to food and water. […] At the end of the experimental session, the animals are euthanised. The individual data are recorded in Microsoft excel sheets. Outliers are excluded after applying the Grubbs statistical evaluation test for outliers, and the result is presented graphically using the GraphPad Prism program.

human MC4 receptor = target: T1, human MC4 receptor (Homo sapiens, UniProt P32245); experiment: Assay (V) Melanocortin Receptor 4 (MC4) binding assay; details: 125NDP-α-MSH binding, BHK cell membranes; read-out: Assay (V) MC4 [Ki]
T1 construct: expressed in transfected cells
Method in brief: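 BHK membranes stably expressing human MC4 receptor were incubated with ^125NDP-α-MSH (≈79 pM final) and compound for 2 h at 25 °C, pH 7.0 HEPES buffer with HSA or ovalbumin. Filter-bound radioactivity was gamma counted. Binding curves were fitted by non-linear regression.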

MC1 receptor = target: T2, MC1 receptor (Homo sapiens, UniProt Q01726); experiment: Assay (IV) Melanocortin Receptor 1 (MC1) binding assay; details: 125NDP-α-MSH binding, BHK cell membranes; read-out: Assay (IV) MC1 Ki
T2 construct: expressed in transfected cells
Method in brief: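 Competition binding used BHK cell membranes stably expressing MC1 (25 μg/ml) with 22 pM final ^125NDP-α-MSH in 25 mM HEPES pH 7.4, CaCl2, MgSO4, EDTA, 0.1% HSA (or ovalbumin), 0.005% Tween 20. After 90 min at 30° C., bound radioligand was filtered and counted, with binding curves fitted by non-linear regression.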

[1] = Solubility data of compounds in water over the pH range; format: physicochemical

T1 sequence (P32245 whole entry): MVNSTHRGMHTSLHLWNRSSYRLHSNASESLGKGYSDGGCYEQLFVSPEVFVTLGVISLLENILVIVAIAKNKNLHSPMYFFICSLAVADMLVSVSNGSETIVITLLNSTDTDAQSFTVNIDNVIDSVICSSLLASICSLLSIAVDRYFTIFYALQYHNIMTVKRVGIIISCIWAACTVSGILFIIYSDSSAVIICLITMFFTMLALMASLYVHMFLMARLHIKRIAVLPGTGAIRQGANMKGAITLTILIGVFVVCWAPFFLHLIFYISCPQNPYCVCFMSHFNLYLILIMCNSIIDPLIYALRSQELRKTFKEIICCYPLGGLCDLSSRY
T2 sequence (Q01726 whole entry): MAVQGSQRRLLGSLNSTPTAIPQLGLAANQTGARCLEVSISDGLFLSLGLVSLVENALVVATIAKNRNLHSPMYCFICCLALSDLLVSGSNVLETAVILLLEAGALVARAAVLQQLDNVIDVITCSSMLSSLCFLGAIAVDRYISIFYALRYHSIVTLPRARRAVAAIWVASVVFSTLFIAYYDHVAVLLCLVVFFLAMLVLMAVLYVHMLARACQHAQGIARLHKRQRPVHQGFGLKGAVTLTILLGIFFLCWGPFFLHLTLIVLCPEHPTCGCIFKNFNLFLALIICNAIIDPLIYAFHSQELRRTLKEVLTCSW

| solubility at 3 days ([1]; pH 3.18) | solubility at 3 days ([1]; pH 4.62) | solubility at 3 days ([1]; pH 4.66) | solubility at 3 days ([1]; pH 5.07) | solubility at 3 days ([1]; pH 5.37) | solubility at 3 days ([1]; pH 5.84) | solubility at 3 days ([1]; pH 6.5) | solubility at 3 days ([1]; pH 7) | solubility at 3 days ([1]; pH 7.29) | solubility at 3 days ([1]; pH 7.43) | SMILES | Food consumption (% of vehicle) 24 h (ad libitum fed rat model; dosing 1 mg/kg) | Food consumption (% of vehicle) 48 h (ad libitum fed rat model; dosing 1 mg/kg) | Ki (human MC4 receptor) | Ki (MC1 receptor) | Food consumption (% of vehicle) 24 h (ad libitum fed rat model; dosing 3 mg/kg) | Food consumption (% of vehicle) 48 h (ad libitum fed rat model; dosing 3 mg/kg) |
| --- | --- | --- | --- | --- | --- | --- | --- | --- | --- | --- | --- | --- | --- | --- | --- | --- |
| – | – | – | – | – | – | – | – | – | – | CCCC[C@H](NC(=O)[C@H](CCCCNC(=O)CN(CC(=O)O)CC(=O)O)NC(=O)[C@H](CO)NC(=O)[C@H](CCC(N)=O)NC(=O)[C@H](CO)NC(=O)CNC(=O)COCCOCCNC(=O)CCCCCCCCCCCCCCCc1nnn[nH]1)C(=O)N[C@H]1CCC(=O)NCCCC[C@@H](C(N)=O)NC(=O)[C@H](Cc2c[nH]c3ccccc23)NC(=O)[C@H](CCCNC(=N)N)NC(=O)[C@@H](Cc2ccccc2)NC(=O)[C@@H]2C[C@@H](O)CN2C1=O [Example 15, (2-{2-[16-(Tetrazol-5-yl)hexadecanoylamino]ethoxy}ethoxy)acetyl-Gly-Ser-Gln-Ser-Lys(BCMA)-Nle-c[Glu-Hyp-D-Phe-Arg-Trp-Lys]-NH2] ({Palmitoyl(16-(5-tetrazolyl))-AEEA}-GSQSK(NTA)[Nle]E[Hyp][dF]RWK-NH2; lactam 7-12) | 74 % of vehicle | 85 % of vehicle | 3.15 nM | > 10 µM | – | – |
| – | – | – | – | – | – | – | – | – | – | CCCC[C@H](NC(=O)[C@H](CCCCNC(=O)CN(CC(=O)O)CC(=O)O)NC(=O)[C@H](Cc1c[nH]cn1)NC(=O)[C@H](CCC(N)=O)NC(=O)[C@H](CO)NC(=O)CNC(=O)COCCOCCNC(=O)CCCCCCCCCCCCCCCc1nnn[nH]1)C(=O)N[C@H]1CCC(=O)NCCCC[C@@H](C(N)=O)NC(=O)[C@H](Cc2c[nH]c3ccccc23)NC(=O)[C@H](CCCNC(=N)N)NC(=O)[C@@H](Cc2ccccc2)NC(=O)[C@@H]2C[C@@H](O)CN2C1=O [Example 1, (2-{2-[16-(Tetrazol-5-yl)hexadecanoylamino]ethoxy}ethoxy)acetyl-Gly-Ser-Gln-His-Lys(BCMA)-Nle-c[Glu-Hyp-D-Phe-Arg-Trp-Lys]-NH2] ({Palmitoyl(16-(5-tetrazolyl))-AEEA}-GSQHK(NTA)[Nle]E[Hyp][dF]RWK-NH2; lactam 7-12) | – | – | 0.4 nM | > 10 µM | 65 % of vehicle | 72 % of vehicle |
| 19 µM (≈ 47.1 µg/mL) | 15 µM (≈ 37.2 µg/mL) | 23 µM (≈ 57 µg/mL) | 18 µM (≈ 44.6 µg/mL) | 10 µM (≈ 24.8 µg/mL) | 41 µM (≈ 102 µg/mL) | 19 µM (≈ 47.1 µg/mL) | 17 µM (≈ 42.1 µg/mL) | 20 µM (≈ 49.6 µg/mL) | 29 µM (≈ 71.9 µg/mL) | CCCC[C@H](NC(=O)[C@H](CNC(=O)CN(CC(=O)O)CC(=O)O)NC(=O)[C@H](CO)NC(=O)[C@H](CCC(N)=O)NC(=O)[C@H](CO)NC(=O)CNC(=O)COCCOCCNC(=O)COCCOCCNC(=O)COCCOCCNC(=O)COCCOCCNC(=O)CCCCCCCCCCCCCCCc1nnn[nH]1)C(=O)N[C@H]1CCC(=O)NCCCC[C@@H](C(N)=O)NC(=O)[C@H](Cc2c[nH]c3ccccc23)NC(=O)[C@H](CCCNC(=N)N)NC(=O)[C@@H](Cc2ccccc2)NC(=O)[C@@H]2C[C@@H](O)CN2C1=O [Example 14, (2-{2-[2-(2-{2-[2-(2-{2-[2-(2-{2-[16-(Tetrazol-5-yl)hexadecanoylamino]ethoxy}ethoxy)acetylamino]ethoxy}ethoxy)acetylamino]ethoxy}ethoxy)acetylamino]ethoxy}ethoxy)acetyl-Gly-Ser-Gln-Ser-Dap(BCMA)-Nle-c[Glu-Hyp-D-Phe-Arg-Trp-Lys]-NH2] ({Palmitoyl(16-(5-tetrazolyl))-AEEA-AEEA-AEEA-AEEA}-GSQS[Dap](NTA)[Nle]E[Hyp][dF]RWK-NH2; lactam 7-12) | – | – | 8.65 nM | > 10 µM | – | – |
